From PMC10542255, “A phase 1 trial of fuzuloparib in combination with apatinib for advanced ovarian and triple-negative breast cancer: efficacy, safety, pharmacokinetics and germline BRCA mutation analysis” (BMC Medicine, 2023)

Tests used:
[1] = human, in vivo
Method: The study used a standard 3 + 3 dose escalation design. The starting dose of fuzuloparib was 40 mg twice daily (bid) in combination with a fixed dose of apatinib at 250 mg once daily (qd); fuzuloparib could be dose escalated in 20 mg increments to up to 100 mg. An additional dose level of fuzuloparib 80 mg bid plus apatinib 375 mg qd was planned after assessment of the regimen of fuzuloparib 80 mg bid plus apatinib 250 mg qd. If dose escalation of fuzuloparib to 100 mg was completed, dose escalation for apatinib was initiated with two dose level planned: 375 mg qd and 500 mg qd (with fuzuloparib fixed at 100 mg bid). During dose escalation, the next-higher dose level was opened if less than one-third of patients in the previous dose level experienced a dose-limiting toxicity (DLT). Based on preliminary safety and efficacy data in the dose-escalation cohort, dose levels for PK-expansion were selected, with a total of 8–12 patients enrolled in each level. All patients received a single dose of oral fuzuloparib on day 1 and a single dose of oral apatinib on day 4 in cycle 0 (6 days in total), followed by continuous dosing of fuzuloparib and apatinib in 28-day cycles starting on cycle 1 day 1. Treatment continued until disease progression, intolerable toxicity, or patient withdrawal.
Pharmacokinetic sampling for single dose of fuzuloparib and apatinib was done on day 1 and day 4 (pre-dose and 0.5, 1, 2, 3, 4, 8, 12, 24, 48 h post-dose) of cycle 0, respectively; sampling for continuous dosing of the combination therapy was done on days 1 (pre-dose and 0.5, 1, 2, 3, 4, 8, 12, 24 h post-dose), 8 (pre-dose), 15 (pre-dose), 22 (pre-dose) of cycle 1, and day 1 (pre-dose and 0.5, 1, 2, 3, 4, 8, 12, 24 h post-dose) of cycle 2.
All enrolled patients who received at least one dose of study drug were included in the efficacy and safety analysis. […] Time-to-event endpoints were estimated using the Kaplan–Meier method, with the 95% CIs calculated using the Brookmeyer and Crowley method. PK parameters were calculated using the WinNonlin noncompartmental model. […]

[2] = tested on: gBRCAmut, platinum-sensitive OC; parameters: method as in PMID 33558426; conditions: fuzuloparib monotherapy, phase 2, gBRCAmut platinum-sensitive OC; cited from earlier work

For N#CC1(c2ccc(NC(=O)c3cccnc3NCc3ccncc3)cc2)CCCC1 [apatinib], the “Dose dependence of apatinib plasma exposure (AUC0-∞)” value [1] was “increased in a dose-dependent manner” and the “Reduction of apatinib AUC0-24 h (cycle 2 day 1) vs AUC0-∞ after single apatinib monotherapy dose (cycle 0 day 4)” value [1] was 47.7%-65.0%.
For O=C(c1cc(Cc2n[nH]c(=O)c3ccccc23)ccc1F)N1CCn2nc(C(F)(F)F)nc2C1 [fuzuloparib], the “Dose dependence of fuzuloparib plasma exposure (AUC0-12 h)” value [1] is listed as “increased in a dose-dependent manner”, the “Median PFS” value [2] is listed as 12.0 months and the ORR [2] is listed as 69.9%.
